Measured values published in patent US11957684B2, “Treatment of heavy menstrual bleeding associated with uterine fibroids” (Sumitomo Pharma Switzerland GmbH, priority 2016, dated 2024).

System: women with uterine fibroids
Test: Example 10: safety
From the text: Secondary endpoints for safety included: Adverse events (AEs), vital signs, weight, standard 12-lead electrocardiogram (ECG), clinical laboratory tests, BMD, biochemical bone metabolism markers (serum N-telopeptide [NTELOP] and bone specific alkaline phosphatase [BAP])

**Q.** For `CONC(=O)Nc1ccc(-c2sc3c(c2CN(C)C)c(=O)n(-c2ccc(OC)nn2)c(=O)n3Cc2c(F)cccc2F)cc1` [Compound 1, N-(4-(1-(2,6-difluorobenzyl)-5-((dimethylamino)methyl)-3-(6-methoxy-3-pyridazinyl)-2,4-dioxo-1,2,3,4-tetrahydrothieno[2,3-d]pyrimidin-6-yl)phenyl)-N′-methoxyurea], which “AE: Arthralgia” value (24 wk) is on record?
**A.** Its value is 8(5.8) n(%).

**Q.** What about the “AE: Bone density decreased” value (24 wk) of the same compound?
**A.** The value was 6(4.3) n(%).

**Q.** What about the “AE: Bone resorption test abnormal” value (24 wk) of the same compound?
**A.** The value was 7(5.1) n(%).

**Q.** And the “AE: Dizziness” value (24 wk)?
**A.** The value was 9(6.5) n(%).

**Q.** What about the “AE: Gamma-glutamyl transferase increased” value (24 wk) of the same compound?
**A.** The value was 7(5.1) n(%).

**Q.** What about the “AE: Genital haemorrhage” value (24 wk) of the same compound?
**A.** Its value is 7(5.1) n(%).

**Q.** What about the “AE: Headache” value (24 wk) of the same compound?
**A.** The value was 21(15.2) n(%).

**Q.** What about the “AE: Hot flush” value (24 wk) of the same compound?
**A.** The value was 59(42.8) n(%).

**Q.** And the “AE: Hyperhidrosis” value (24 wk)?
**A.** The value was 13(9.4) n(%).

**Q.** And the “AE: Malaise” value (24 wk)?
**A.** The value was 8(5.8) n(%).

**Q.** And the “AE: Menorrhagia” value (24 wk)?
**A.** The value was 34(24.6) n(%).

**Q.** What about the “AE: Metrorrhagia” value (24 wk) of the same compound?
**A.** Its value is 68(49.3) n(%).

**Q.** And the “AE: Resorption bone increased” value (24 wk)?
**A.** Its value is 7(5.1) n(%).

**Q.** And the “AE: Somnolence” value (24 wk)?
**A.** The value was 7(5.1) n(%).

**Q.** What about the “AE: Viral upper respiratory tract infection” value (24 wk) of the same compound?
**A.** The value was 39(28.3) n(%).

**Q.** What about the “AEs Leading to Study Drug Discontinuation” value (24 wk) of the same compound?
**A.** The value was 9(6.5) n(%).

**Q.** And the Deaths (24 wk)?
**A.** Its Deaths is 0(0.0) n(%).

**Q.** What about the “SAEs Leading to Study Drug Discontinuation” value (24 wk) of the same compound?
**A.** The value was 0(0.0) n(%).

**Q.** What about the “Serious Treatment-Emergent AEs” value (24 wk) of the same compound?
**A.** The value was 0(0.0) n(%).

**Q.** And the “Serious Treatment-Emergent AEs, Not Related” value (24 wk)?
**A.** Its value is 0(0.0) n(%).

**Q.** And the “Serious Treatment-Emergent AEs, Related” value (24 wk)?
**A.** The value was 0(0.0) n(%).

**Q.** What about the “Treatment-Emergent AEs” value (24 wk) of the same compound?
**A.** The value was 131(94.9) n(%).

**Q.** What about the “Treatment-Emergent AEs, Not Related” value (24 wk) of the same compound?
**A.** The value was 11(8.0) n(%).

**Q.** And the “Treatment-Emergent AEs, Related” value (24 wk)?
**A.** The value was 120(87.0) n(%).

**Q.** And the “AE leading to discontinuation: Abdominal pain” value (in vivo)?
**A.** The value was 0(0.0) n(%).

**Q.** And the “AE leading to discontinuation: Arthralgia” value (in vivo)?
**A.** Its value is 1(0.7) n(%).

**Q.** What about the “AE leading to discontinuation: Back pain” value (in vivo) of the same compound?
**A.** The value was 0(0.0) n(%).

**Q.** What about the “AE leading to discontinuation: Blood pressure increased” value (in vivo) of the same compound?
**A.** The value was 0(0.0) n(%).

**Q.** What about the “AE leading to discontinuation: Depression” value (in vivo) of the same compound?
**A.** The value was 1(0.7) n(%).

**Q.** What about the “AE leading to discontinuation: Drug eruption” value (in vivo) of the same compound?
**A.** The value was 0(0.0) n(%).

**Q.** And the “AE leading to discontinuation: Fatigue” value (in vivo)?
**A.** The value was 1(0.7) n(%).

**Q.** What about the “AE leading to discontinuation: Headache” value (in vivo) of the same compound?
**A.** The value was 1(0.7) n(%).

**Q.** And the “AE leading to discontinuation: Hot flush” value (in vivo)?
**A.** The value was 4(2.9) n(%).

**Q.** And the “AE leading to discontinuation: Hypertension” value (in vivo)?
**A.** Its value is 0(0.0) n(%).

**Q.** And the “AE leading to discontinuation: Malaise” value (in vivo)?
**A.** The value was 1(0.7) n(%).

**Q.** And the “AE leading to discontinuation: Nausea” value (in vivo)?
**A.** The value was 0(0.0) n(%).

**Q.** What about the “AE leading to discontinuation: Pyrexia” value (in vivo) of the same compound?
**A.** Its value is 0(0.0) n(%).

**Q.** What about the “AE leading to discontinuation: Tenosynovitis” value (in vivo) of the same compound?
**A.** The value was 1(0.7) n(%).

**Q.** And the “AE leading to discontinuation: Tenosynovitis stenosans” value (in vivo)?
**A.** Its value is 1(0.7) n(%).

**Q.** What about the “ALP > 3 × ULN” value (in vivo) of the same compound?
**A.** Its value is 0 (0.0) n (%).

**Q.** What about the “ALT > 3 × ULN” value (in vivo) of the same compound?
**A.** Its value is 3 (2.2) n (%).

**Q.** What about the “ALT > 5 × ULN” value (in vivo) of the same compound?
**A.** Its value is 1 (0.7) n (%).

**Q.** What about the “ALT and AST > 3 × ULN” value (in vivo) of the same compound?
**A.** Its value is 2 (1.4) n (%).

**Q.** What about the “ALT or AST > 3 × ULN with Tbili > 2 × ULN” value (in vivo) of the same compound?
**A.** The value was 0 (0.0) n (%).

**Q.** What about the “AST > 3 × ULN” value (in vivo) of the same compound?
**A.** The value was 2 (1.4) n (%).

**Q.** And the “AST > 5 × ULN” value (in vivo)?
**A.** Its value is 0 (0.0) n (%).

**Q.** What about the “Any Markedly Abnormal LFT” value (in vivo) of the same compound?
**A.** The value was 3 (2.2) n (%).

**Q.** How did the Deaths (24 wk) turn out when `CCNC(=O)[C@@H]1CCCN1C(=O)[C@H](CCCNC(=N)N)NC(=O)[C@H](CC(C)C)NC(=O)[C@@H](CC(C)C)NC(=O)[C@H](Cc1ccc(O)cc1)NC(=O)[C@H](CO)NC(=O)[C@H](Cc1c[nH]c2ccccc12)NC(=O)[C@H](Cc1c[nH]cn1)NC(=O)[C@@H]1CCC(=O)N1` [leuprolide acetate, reference compound] was run?
**A.** Its Deaths is 0(0.0) n(%).
